Laboratory results reported in US20240376099A1, “COMPOUNDS AND COMPOSITIONS AS INHIBITORS OF ENDOSOMAL TOLL-LIKE RECEPTORS” (Novartis AG, priority 2016, published 2024).

What follows are compounds tested against T1, TLR8 (Homo sapiens, UniProt Q9NR97) (assay: huPBMC TLR8 Antagonist IL-6 TR-FRET Assay). Conditions: human PBMCs stimulated with ssRNA40 1 μg/ml (DOTAP), 14-16 hrs; IL-6 TR-FRET read-out.
T1 sequence (Q9NR97 27-1041): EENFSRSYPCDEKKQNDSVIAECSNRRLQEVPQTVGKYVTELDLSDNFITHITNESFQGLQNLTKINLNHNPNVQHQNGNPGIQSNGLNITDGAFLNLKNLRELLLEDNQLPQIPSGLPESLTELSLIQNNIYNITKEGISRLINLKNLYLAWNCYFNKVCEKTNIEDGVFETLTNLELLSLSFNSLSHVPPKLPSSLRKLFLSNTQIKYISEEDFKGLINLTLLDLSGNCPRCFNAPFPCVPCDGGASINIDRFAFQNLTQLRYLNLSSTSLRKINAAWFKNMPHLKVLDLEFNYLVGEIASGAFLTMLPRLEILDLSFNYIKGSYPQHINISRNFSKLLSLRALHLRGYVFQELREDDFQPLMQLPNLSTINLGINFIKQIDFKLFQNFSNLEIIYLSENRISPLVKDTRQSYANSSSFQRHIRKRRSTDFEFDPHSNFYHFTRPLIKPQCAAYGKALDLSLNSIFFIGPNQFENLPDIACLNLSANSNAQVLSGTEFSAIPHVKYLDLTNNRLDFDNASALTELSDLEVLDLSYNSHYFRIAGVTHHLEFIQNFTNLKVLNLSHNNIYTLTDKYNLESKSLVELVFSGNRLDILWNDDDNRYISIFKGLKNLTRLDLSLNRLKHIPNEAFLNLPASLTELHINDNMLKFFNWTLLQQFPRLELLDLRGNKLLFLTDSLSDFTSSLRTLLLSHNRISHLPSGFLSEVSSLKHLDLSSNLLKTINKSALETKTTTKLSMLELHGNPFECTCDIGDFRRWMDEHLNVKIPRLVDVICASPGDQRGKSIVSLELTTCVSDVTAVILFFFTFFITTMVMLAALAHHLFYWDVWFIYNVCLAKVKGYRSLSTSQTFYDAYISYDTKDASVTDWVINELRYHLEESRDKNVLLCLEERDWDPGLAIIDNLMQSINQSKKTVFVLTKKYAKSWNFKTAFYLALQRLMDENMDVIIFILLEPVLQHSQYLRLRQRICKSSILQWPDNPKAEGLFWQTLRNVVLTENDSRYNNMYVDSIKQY
Assay type: cell-based
Design: Fresh blood was collected from normal human donors; endogenous in cells; host or cells: human PBMCs from fresh donor blood
Method in brief: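 Human PBMCs from fresh donor blood (150,000 cells/well) stimulated 14–16 h at 37 °C with DOTAP-complexed ssRNA40 (final 1 μg/ml for TLR8, 10 μg/mL for TLR7) or ODN2216 (final 0.3 μM, TLR9), 0.25% DMSO, ten-point 1/3 compound dilutions. Supernatant IL-6 read by HTRF (TLR8); IFNα by IFNα2b AlphaLISA (TLR7/TLR9).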

| Compound | IC50 [nM] |
| --- | --- |
| CCNCCC(=O)NC12CCC(Cn3nc(C)c4c3CCN(c3cc(C)nc5c3cnn5C)C4)(CC1)CC2 [compound 126, N-(4-((5-(1,6-dimethyl-1H-pyrazolo[3,4-b]pyridin-4-yl)-3-methyl-4,5,6,7-tetrahydro-1H-pyrazolo[4,3-c]pyridin-1-yl)methyl)bicyclo[2.2.2]octan-1-yl)-3-(ethylamino)propanamide] | 153 |
| CCNC12CCC(Cn3nc(C)c4c3CCN(c3ccnc(-c5ccccc5)c3)C4)(CC1)CC2 [compound 127, N-ethyl-4-((3-methyl-5-(2-phenylpyridin-4-yl)-4,5,6,7-tetrahydro-1H-pyrazolo[4,3-c]pyridin-1-yl)methyl)bicyclo[2.2.2]octan-1-amine] | 1430 |
| Cc1cc(N2CCc3c(c(C)nn3CC34CCC(N5CCOC[C@H]5C)(CC3)CC4)C2)c2cnn(C)c2n1 [compound 129, (R)-4-(4-((5-(1,6-dimethyl-1H-pyrazolo[3,4-b]pyridin-4-yl)-3-methyl-4,5,6,7-tetrahydro-1H-pyrazolo[4,3-c]pyridin-1-yl)methyl)bicyclo[2.2.2]octan-1-yl)-3-methylmorpholine] | 12 |
| COCCNC12CCC(Cn3nc(C)c4c3CCN(c3ccnc(-c5ccccc5)c3)C4)(CC1)CC2 [compound 130, N-(2-methoxyethyl)-4-((3-methyl-5-(2-phenylpyridin-4-yl)-4,5,6,7-tetrahydro-1H-pyrazolo[4,3-c]pyridin-1-yl)methyl)bicyclo[2.2.2]octan-1-amine] | 2830 |
| Cc1cc(N2CCc3c(c(C)nn3CC34CCC(NC(=O)C5CNC5)(CC3)CC4)C2)c2cnn(C)c2n1 [compound 131, N-(4-((5-(1,6-dimethyl-1H-pyrazolo[3,4-b]pyridin-4-yl)-3-methyl-4,5,6,7-tetrahydro-1H-pyrazolo[4,3-c]pyridin-1-yl)methyl)bicyclo[2.2.2]octan-1-yl)azetidine-3-carboxamide] | 361 |
| CCN(C)CC(=O)NC12CCC(Cn3nc(C)c4c3CCN(c3cc(C)nc5c3cnn5C)C4)(CC1)CC2 [compound 132, N-(4-((5-(1,6-dimethyl-1H-pyrazolo[3,4-b]pyridin-4-yl)-3-methyl-4,5,6,7-tetrahydro-1H-pyrazolo[4,3-c]pyridin-1-yl)methyl)bicyclo[2.2.2]octan-1-yl)-2-(ethyl(methyl)amino)acetamide] | 8 |
| [2H]C([2H])([2H])N(CC(=O)NC12CCC(Cn3nc(C)c4c3CCN(c3cc(C)nc5c3cnn5C)C4)(CC1)CC2)C([2H])([2H])[2H] [compound 134, 2-(bis(trideuteromethyl)amino)-N-(4-((5-(1,6-dimethyl-1H-pyrazolo[3,4-b]pyridin-4-yl)-3-methyl-4,5,6,7-tetrahydro-1H-pyrazolo[4,3-c]pyridin-1-yl)methyl)bicyclo[2.2.2]octan-1-yl)acetamide] | 93 |
| Cc1cc(N2CCc3c(c(C)nn3CC34CCC(NCC5(CO)COC5)(CC3)CC4)C2)c2cnn(C)c2n1 [compound 137, (3-(((4-((5-(1,6-dimethyl-1H-pyrazolo[3,4-b]pyridin-4-yl)-3-methyl-4,5,6,7-tetrahydro-1H-pyrazolo[4,3-c]pyridin-1-yl)methyl)bicyclo[2.2.2]octan-1-yl)amino)methyl)oxetan-3-yl)methanol] | 68 |
| Cc1cc(N2CCc3c(c(C)nn3CC34CCC(NC(=O)OC(C)(C)C)(CC3)C4)C2)c2cnn(C)c2n1 [compound 148, tert-butyl (4-((5-(1,6-dimethyl-1H-pyrazolo[3,4-b]pyridin-4-yl)-3-methyl-4,5,6,7-tetrahydro-1H-pyrazolo[4,3-c]pyridin-1-yl)methyl)bicyclo[2.2.1]heptan-1-yl)carbamate] | > 10000 |

The remaining compounds from weak to strong by IC50, led by results:

| IC50 [nM] | Compound |
| --- | --- |
| 2290 | CCn1ncc2c(N3CCc4c(c(C)nn4CC45CCC(NC(=O)[C@@H]6COCCN6)(CC4)CC5)C3)cc(C)nc21 [compound 141, (S)-N-(4-((5-(1-ethyl-6-methyl-1H-pyrazolo[3,4-b]pyridin-4-yl)-3-methyl-4,5,6,7-tetrahydro-1H-pyrazolo[4,3-c]pyridin-1-yl)methyl)bicyclo[2.2.2]octan-1-yl)morpholine-3-carboxamide] |
| 932 | CNCCC(=O)NC12CCC(Cn3nc(C)c4c3CCN(c3cc(C)nc5c3cnn5C)C4)(CC1)CC2 [compound 142, N-(4-((5-(1,6-dimethyl-1H-pyrazolo[3,4-b]pyridin-4-yl)-3-methyl-4,5,6,7-tetrahydro-1H-pyrazolo[4,3-c]pyridin-1-yl)methyl)bicyclo[2.2.2]octan-1-yl)-3-(methylamino)propanamide] |
| 687 | Cc1cc(N2CCc3c(c(C)nn3CC34CCC(NC5CCC5)(CC3)CO4)C2)c2cnn(C)c2n1 [compound 143, N-cyclobutyl-1-((5-(1,6-dimethyl-1H-pyrazolo[3,4-b]pyridin-4-yl)-3-methyl-4,5,6,7-tetrahydro-1H-pyrazolo[4,3-c]pyridin-1-yl)methyl)-2-oxabicyclo[2.2.2]octan-4-amine] |
| 105 | Cc1nn(CC23CCC(NC4CCC4)(CC2)CC3)c2c1CN(c1ccnc(-c3ccccc3)c1)CC2 [compound 144, N-cyclobutyl-4-((3-methyl-5-(2-phenylpyridin-4-yl)-4,5,6,7-tetrahydro-1H-pyrazolo[4,3-c]pyridin-1-yl)methyl)bicyclo[2.2.2]octan-1-amine] |
| 43 | Cc1cc(N2CCc3c(c(C)nn3CC34CCC(NC(=O)C5CNCCO5)(CC3)CC4)C2)c2cnn(C)c2n1 (stereo not drawn) [compound 125, N-(4-((5-(1,6-dimethyl-1H-pyrazolo[3,4-b]pyridin-4-yl)-3-methyl-4,5,6,7-tetrahydro-1H-pyrazolo[4,3-c]pyridin-1-yl)methyl)bicyclo[2.2.2]octan-1-yl)morpholine-2-carboxamide] |
| 13 | Cc1cc(N2CCc3c(c(C)nn3CC34CCC(N5CCOC[C@@H]5C)(CC3)CC4)C2)c2cnn(C)c2n1 [compound 128, (S)-4-(4-((5-(1,6-dimethyl-1H-pyrazolo[3,4-b]pyridin-4-yl)-3-methyl-4,5,6,7-tetrahydro-1H-pyrazolo[4,3-c]pyridin-1-yl)methyl)bicyclo[2.2.2]octan-1-yl)-3-methylmorpholine] |
